Measurements from a melting point compilation (Tetko et al.; mined from patent text by program, amines drawn as free bases though some values may be those of a salt).

First: CC(C)(C)Sc1c(CC(C)(C)C(=O)O)n(Cc2ccc(Cl)cc2)c2ccc(-c3ccccc3)cc12
Second: O=C(O)C(CSc1ccccc1)CS(=O)(=O)c1ccc(-c2ccc(Cl)cc2)cc1 (centres undefined)
The melting point of the first is higher: 245 to 246 °C for the first, 158 to 162 °C for the second.

First: NC(=O)Cc1ccc2c(c1)CCc1ccccc1S2
Second: OC12N=C(CSCc3ccccc3)SC1Cc1cc(Cl)ccc12 (centres undefined)
The melting point of the first is higher: 188 to 189 °C for the first, 102 to 104 °C for the second.

Compared with CC(=O)NC[C@@H]1C[C@H]1c1cccc2c1C[C@@H](CCCCc1ccccc1)O2, Cc1nc(N2CCCC(CCCc3ccccc3)C2=O)sc1C(=O)NCc1ccccc1 (centres undefined) is higher in melting point: 65 to 66 °C for the first, 140 to 141 °C for the second.

Compared with CCCCSc1nc(=O)[nH]cc1F, CCCCSc1nc(N)c(C(=O)c2ccccc2)s1 is lower in melting point: 113 °C for the first, 91 to 94 °C for the second.

Compared with CCOC(=O)c1cc2cc(F)cnc2n1Cc1ccccc1, CCOC(=O)Cn1c2cccccc-2c(CC)c1=O is higher in melting point: 74 to 75 °C for the first, 128 to 131 °C for the second.

First: CCC(=O)OCC1OC(n2cnc3c(=O)[nH]c(N)nc32)C(F)C1OC(=O)CC (centres undefined)
Second: Nc1nc2c(c(=O)[nH]1)n(CC(=O)O)c(=O)n2C1OC(CO)C(O)C1O (centres undefined)
The melting point of the first is lower: 198 to 200 °C for the first, greater than 230 °C for the second.

First: S=c1[nH]ccn1C1CCCc2ccccc21 (centres undefined)
Second: CNc1cc(N2CCc3ccccc32)cc(C)n1
The melting point of the first is higher: 188 to 189 °C for the first, 174 to 175 °C for the second.

Compared with Cc1ccc([C@@H]2c3c(C)c(N4CCC(c5ccccc5)CC4)c(C)c(C)c3OC2(C)C)cc1, O=C(C1Oc2ccccc2OC1c1ccccc1)N1CCOCC1 (centres undefined) is higher in melting point: 137 to 140 °C for the first, 148 to 150 °C for the second.

First: COC(=O)c1ccc(C(=O)NS(=O)(=O)c2ccc(C(=O)NCCCc3ccccc3)cc2)cn1
Second: COC(=O)CCc1cc(C(=O)c2cccc(C(=O)OC)n2)ccc1OCCCC/C=C/c1ccc(OC)cc1
The melting point of the first is higher: 240 to 242 °C for the first, 80 to 82 °C for the second.

First: CCCN(CCC)C(=O)COc1nc(-c2ccc(F)cc2)nc2c1CCCC2
Second: CCCN(CCC)CCc1ccc(OC)c2[nH]nc(O)c12
The melting point of the first is lower: 95 to 96 °C for the first, 198 to 201 °C for the second.

First: C=CCOc1ccc2cc(C(=O)OCC)[nH]c2c1
Second: CCOC(=O)c1cc(=O)c2ccc(N)cc2o1
The melting point of the first is lower: 89 to 91 °C for the first, 192 to 194 °C for the second.

First: C=CCC1C(=O)CCCC1=O
Second: Cc1cc2c(c3c1NC(=O)CC3)O[C@@H](CN)[C@@H]2CO (racemic)
The melting point of the first is lower: 125 to 127 °C for the first, greater than 300 °C for the second.

Compared with COc1cccc2c(Nc3ccccc3C)nc(N)nc12, N#Cc1nc(-c2ccc(=O)[nH]c2)c(-c2ccccc2)nc1N is higher in melting point: 218 to 220 °C for the first, 243 to 248 °C for the second.

Compared with CC(=O)OC1CCC2(C)C(CCC3C2CCC2(C)C(C(C)CCCI)CCC32)C1 (centres undefined), CC12CCC3C4CCC(=O)C=C4CCC3C1CCC2C(F)F (centres undefined) is lower in melting point: 140 to 146 °C for the first, 102 to 103 °C for the second.

First: COc1ccc(-n2c(-c3cc(-c4ccc(Cl)cc4)c(N4CCOCC4)s3)nc3ccccc3c2=O)cc1
Second: COc1ccc(-c2nc(Sc3ccc(C(C)(C)C)cc3)n(C3CCCCO3)c2-c2ccc(OC)cc2)cc1 (centres undefined)
The melting point of the first is higher: 217 to 218 °C for the first, 162 to 164 °C for the second.

First: CCOC(=O)c1ccc(N=C(Nc2ccc(C(=O)OCC)cc2)c2ccccc2Cl)cc1
Second: COC(=O)c1ccc(COc2ccc3cc(-c4ccc(-c5ccccc5)n4Cc4ccc(C(F)(F)F)cc4)ccc3c2)c(C(=O)OC)c1
The melting point of the first is lower: 98 to 108 °C for the first, 172 to 174 °C for the second.

Compared with O=C(N[C@H]1CCC[C@@H](CN2CC=C(c3ccccc3)CC2)C1)c1ccccc1, O=C(CBr)NCCSC(c1ccccc1)(c1ccccc1)c1ccccc1 is lower in melting point: 200 to 204 °C for the first, 130 to 135 °C for the second.

Compared with Cc1nn(C)cc1C(=O)Nc1cc(Oc2ccc3nc(NC(=O)C4CC4)cn3n2)ccc1F, Cc1nc(COc2ccc(Cl)cc2)sc1C(=O)N[C@H](C)[C@](O)(Cn1cncn1)c1ccc(F)cc1F is lower in melting point: 205 °C for the first, 134 to 135 °C for the second.

Compared with Cn1cc(-c2cc(-c3ccc4[nH]ccc4c3)ccn2)n(-c2ccc(C(C)(C)C#N)cc2)c1=O, Cc1cc(-n2c(C)ccc2-c2ccc(S(C)(=O)=O)c(F)c2)ccc1-c1cscn1 is lower in melting point: 238 °C for the first, 179 to 181 °C for the second.

First: CCCCCNC(=S)CC(=O)O
Second: CCCCCCCCCCCCC(C)COc1ccc(C(=O)O)o1 (centres undefined)
The melting point of the first is lower: 72 to 76 °C for the first, 88 to 90 °C for the second.

First: COc1cc(-c2ncn(Cc3ccccc3)c2-c2scc(OC)c2OC)cc(OC)c1OC
Second: C=CCOc1ccc(OCC)c2c1S(=O)(=O)N(Cc1ccccc1)C2=O
The melting point of the first is lower: 114 to 115 °C for the first, 148 to 149 °C for the second.

First: COc1ccccc1C(=O)NC1CCCn2c1nc(-c1ccncc1)cc2=O (racemic)
Second: CN1C(=O)c2cc(CCc3ccncc3)cnc2N(C2CC2)c2nc(Cl)ccc21
The melting point of the first is lower: 155 to 157 °C for the first, 218 to 219 °C for the second.

Compared with Nc1c(Cl)cc(-c2nc(C3CCNCC3)no2)c2c1CCO2, O=S(=O)(NCC1CCN(C[C@H]2COc3ccc(Br)cc3O2)CC1)c1cccc(Cl)c1Cl is lower in melting point: 219 °C for the first, 93 to 95 °C for the second.

First: CCOC(=O)C(=O)c1ccc(OC)s1
Second: CCOc1ccccc1C(=N)N
The melting point of the first is higher: 136 to 137 °C for the first, 78 to 84 °C for the second.

Compared with O=[N+]([O-])c1ccccc1OC1SCC(O)C(O)C1O (centres undefined), O=[N+]([O-])c1cccc(CO)c1Cl is lower in melting point: 137 to 140 °C for the first, 69 to 70 °C for the second.

First: CC(C)Cn1c(CNC(=O)OC(C)(C)C)c(-c2ccccc2)c2cc(/C=C/C(N)=O)ccc2c1=O
Second: CCCC(C)NC(=O)c1ccc(C(=O)Nc2ccccc2NC(=O)OC(C)(C)C)s1 (centres undefined)
The melting point of the first is lower: 146 to 147 °C for the first, 183 °C for the second.

First: Cc1cccc(C(C)(C)C)c1-n1sc(=O)n(Cc2ccccc2)c1=O
Second: Cc1cccc(NC(=O)NC2CN(C(=O)C(C)(C)C)c3ccccc3N(CC(=O)N(C)C)C2=O)c1 (centres undefined)
The melting point of the first is lower: 89.8 °C for the first, 252 to 254 °C for the second.

First: Cc1c(Nc2ccc(Cl)cc2C(=O)O)cccc1C(F)(F)F
Second: Cc1cccc(C)c1N1C(=N)N(c2cccc(C(F)(F)F)c2)CC1C (centres undefined)
The melting point of the first is higher: 220 to 222 °C for the first, 95 to 98 °C for the second.

First: O=C1c2ccccc2-c2c1c1ccccc1c(=O)n2CCCCCNS(=O)(=O)c1ccccc1
Second: CCC(=O)Nc1ccccc1-c1nc2ccccc2[nH]1
The melting point of the first is lower: 194 to 195 °C for the first, greater than 200 °C for the second.

First: CCc1nc2c(c(C)c(C)n3nnnc23)n1CCOCCN1CCCS1(=O)=O
Second: CCCOc1c(C=NO)c(=O)n(C)c(=O)n1C
The melting point of the first is higher: 176 to 178 °C for the first, 119 to 120 °C for the second.

Compared with COC(=O)c1ccc(CCc2ccncc2)cc1, O=C(O)Cc1ccc(Oc2ccccc2CC(=O)O)cc1 is higher in melting point: 62 to 64 °C for the first, 150 to 152 °C for the second.

Compared with CNc1nc2c(N)ncnc2n1C1OC(CO)C(O)C1O (centres undefined), CCNC(=O)c1c(Cl)ccc(N)c1[Si](C)(C)C is lower in melting point: greater than 250 °C for the first, 147 to 149 °C for the second.

First: COC(=O)CC1CCc2ccc(OCc3ccc(C#N)cc3)cc2C1 (centres undefined)
Second: CC(C)(C)OC(=O)N1CCc2ccc3ccn(CCOc4ccccc4F)c3c2CC1
The melting point of the first is lower: 120 to 122 °C for the first, 132 to 134 °C for the second.

First: Oc1nsc(Cc2ccccc2)n1
Second: N#CN=C(NCc1ccccc1)Nc1cccnc1
The melting point of the first is lower: 50 °C for the first, 189 to 190 °C for the second.

First: O=c1[nH]c2cc(Cl)ccc2c(O)c1-c1cccc(C#Cc2ccccc2)c1
Second: N#Cc1ccsc1C1=CC(=O)Nc2cc(-c3ccccc3F)c(O)cc2N1
The melting point of the first is higher: 297 to 300 °C for the first, 242 °C for the second.

Compared with CC(C)(C)OC(=O)N1CC(NS(=O)(=O)c2ccc(Oc3ccccc3)cc2)C(SC(C)(C)C)C1 (centres undefined), CC(C)(C)OC(=O)C(N)C1NC(C(=O)OCc2ccccc2)C2(CCN(Cc3ccccc3)CC2)S1 (centres undefined) is higher in melting point: 85 to 86 °C for the first, 140 to 141 °C for the second.

Compared with Cc1ccc(S(=O)(=O)N2C=Cc3cccc(-n4cccc4)c3C2C#N)cc1 (centres undefined), c1cc(-n2cccc2)cc(-n2cnc3cc(-c4ccoc4)ccc32)c1 is lower in melting point: 160 °C for the first, 144 to 145 °C for the second.

First: CCCCCCCC1(C(=O)OC)CCC(C2CCC(CCC)CC2)CC1 (centres undefined)
Second: CCCCCCCCCCC[C@@H](C[C@@H]1OC(=O)[C@H]1CCCCCC)OC(=O)CC(=O)NC(C)C
The melting point of the first is lower: 49 °C for the first, 59 °C for the second.

First: Nc1c(NCc2ccccc2F)ccnc1Cl
Second: NC(=O)c1cnc2ccc(Cl)cc2c1Cl
The melting point of the first is lower: 181 to 187 °C for the first, 209 °C for the second.

Compared with Cn1cnc(COc2nn3c(-c4ccc(F)cc4)nnc3cc2-c2ccsc2)n1, O=C1NC(=O)c2c1cc1ccc3c(c1c2-c1ccc(F)cc1)OCC3 is higher in melting point: 254 to 255 °C for the first, greater than 310 °C for the second.

First: CC(c1ccccc1)n1cncc1C(N)=O (centres undefined)
Second: O=C(c1ccc(Cl)cc1)c1c(N2C(=O)c3ccccc3C2=O)sc(Br)c1CO
The melting point of the first is lower: 136 to 137 °C for the first, 170 to 172 °C for the second.

Compared with CN(C)C1CCN(C(=O)C2CCC(c3[nH]nc4c3C(=O)c3c(NC(=O)NN5CCOCC5)cccc3-4)CC2)C1 (centres undefined), CCOC(=O)N1CCN(c2nc(NC(C)=O)ccc2[N+](=O)[O-])CC1 is lower in melting point: 191 to 193 °C for the first, 168 to 169 °C for the second.

Compared with CCOC(=O)/C=C/c1cnn(C)c1-c1ccoc1, CCOC(=O)c1ccc(-c2cnc3c(c2)N(Cc2c(F)ccc(F)c2Cl)C(=O)CN3)cc1 is higher in melting point: 82 to 83 °C for the first, 180 to 182 °C for the second.

First: Cc1c(C=O)c2c(c(C)c1NC(=O)NC(C)(C)C)C(c1ccc(C(C)C)cc1)CO2 (single isomer, unassigned; (-))
Second: CC(C)(C)OC(=O)NC(CO)COc1noc2ccc(NC=O)cc12 (centres undefined)
The melting point of the first is higher: 209 to 210 °C for the first, 104 to 105 °C for the second.

Compared with CCCCS(=O)(=O)Nc1ccccc1Oc1ccc2ncccc2c1, COCN1C(=O)CN2CCOC2(c2ccccc2Cl)c2cc(Cl)ccc21 (centres undefined) is higher in melting point: 131 to 133 °C for the first, 144 to 147 °C for the second.

First: CCCCCCCCCCCOc1cccc(CCCC(N)(CO)CO)c1
Second: CC#CCOc1ccc(OCCC(=O)O)cc1
The melting point of the first is lower: 71 to 72 °C for the first, 88 to 92 °C for the second.

First: Cc1cc(F)c(Br)cc1CC(=O)O
Second: CC(=O)OCc1c(Br)cccc1N1CCc2c(sc3c2CCCC3)C1=O
The melting point of the first is higher: 100 to 101 °C for the first, 74 to 75 °C for the second.

First: CCCCN(C(=O)C1CC1)c1nnc(C)s1
Second: COc1c(Cl)c(-c2nnc(C)s2)cc2oc(=O)c(C)c(C)c12
The melting point of the first is lower: 82 to 84 °C for the first, 209 to 210 °C for the second.

Compared with O=C(NNC(=O)C(Cl)(Cl)Cl)c1cccc(Cl)c1, Fc1ccc2[nH]cc(C3=CCN(CC4COc5cccnc5O4)CC3)c2c1 (centres undefined) is lower in melting point: 143 to 144 °C for the first, 124 °C for the second.

N#Cc1cc([N+](=O)[O-])c2sc(N3CCC4(CC3)OCCO4)nc(=O)c2c1 gave a melting point of 217 to 220 °C.
